Test results taken from patent publication US10952433B2, “Solutions for enhancing the effectiveness of insecticides and fungicides on living plants and related methods” (priority 2015, dated 2021).
Read-outs that look alike come from different tables or passages of the source.

Key:
[1] = tested on: lepidopteran larvae: cabbage loopers (Trichoplusia ni) and beet armyworms (Spodoptera exigua); format: in vivo; conditions: plants
Protocol: In a first group of tests, the results of which are shown in Table 7 (pages 22-24), romaine lettuce plants two to three inches in height were exposed to 10 milliliters of solution applied to each plant using a low volume trigger spray. With respect to containers 0-7, ten plants were employed per container, nine were treated and one was an internal control. In containers M-H, ten plants per container were used, five were treated and 5 were internal controls. Each container was infested with 30 lepidopteran larvae between the 5th and 6th instar development. Fifteen cabbage loopers (Trichoplusia ni) and 15 beet armyworms (Spodoptera exigua) were used to infest the romaine lettuce plants. Visual evaluations for the average percentage total surface area damage were taken 24 hours after infestation. Percentage damage was evaluated by 5% increments for total damage across all plant leaves.
As indicated in the first column of Table 7, in some tests, no insecticide was employed and there were two controls; a no water control and a no dye control. A wide variety of insecticides selected from the following group were tested: Chlorantranilopril, Acephate, Methoxyfenozide, Spinosad, Permethrin, and Indoxacarb. The product concentration is shown in PPM in column 2. Column 3 is divided into two subunits, the first being CO3 and the second, PO4. In all instances in columns 3, 4 and 5 and their sub-columns, the concentrations used were 200:1. The fourth column employed amine oxide, but no buffer. […] Two sub-columns each are represented for CO3 and PO4. The final column is a reading of the Percent Lepidopteran Damage to the romaine lettuce plants after 24 hours.
In addition to testing the buffered amine system of the present invention with the two amine oxides identified as CO3 and PO4 and their use with 12 carbon length and a mixture of 12 and 18 designated 1218 for comparative data purposes various differences were created in the testing. Some of the tests were performed with (a) no insecticide along with (b) no amine oxide for CO3 and PO4 and (c) with no buffer, but with amine oxide. Also, tests were run using no insecticide and no water control with no foliar application being made. Tests with no insecticide and no dye control employed foliar application of water only. The tests were conducted with all of the testing on the buffer alone, the amine oxide alone and the buffered amine oxide system of the present invention in the concentration of 200:1.

[2] = tested on: lepidopteran larvae: cabbage loopers (Trichoplusia ni) and beet armyworms (Spodoptera exigua); format: in vivo; conditions: leaf discs
Description: A second series of tests involved romaine lettuce discs approximately ⅝ inch in diameter. (L. sativa). They were dipped in the treatment solution one second per disc. This test involved the 5/5 configuration, i.e., 5 treated and 5 untreated. The infestation involved […] lepidopteran larvae at the 3rd to 4th instar development per container: four cabbage loopers (Trichoplusia ni), and four beet armyworms (Spodoptera exigua) were employed. The test containers were placed in a dark humidity cabinet at 15° C. and 80% relative humidity. Visual evaluations of the average percent damage were taken at 24, 48 and 72 hours after the initiation of infestation. Damage was evaluated in 5% increments based on total disc area.
In the tests reported in Table 8 pages 29-32), romaine lettuce leaf discs ⅝″ in diameter (L. sativa) were dipped in the treatment solution for about one second per disc. Infestation was provided by eight lepidopteran larvae at the 3rd to 4th instar development per container. Four cabbage loopers (Trichoplusia ni) and four beet armyworms (Spodoptera exigua) were employed in infestation. The containers were placed in a dark humidity cabinet at 15° C. and 80% relative humidity. Visual observations of the average percent damage was taken at 24, 48 and 72 hours after infestation. Damage evaluation was by 5% increments over the total disc area.
In the tests results provided in Table 8, the identity and concentrations of the insecticide was identical to the tests results reported in Table 7. The concentration of 200:1 was employed for the no amino oxide, no buffer and buffered amine oxide system. This series of tests, however, reported how the percent damage changed with time at the respective 24, 48 and 72 hour intervals.

[3] = insecticide + CO3 buffer 200:1, no amine oxide, PPM: Chlorantranilopril 60, Acephate 70, Methoxyfenozide 100, Spinosad 30, Permethrin 10, Indoxacarb 50
[4] = insecticide + PO4 buffer 200:1, no amine oxide, PPM: Chlorantranilopril 60, Acephate 70, Methoxyfenozide 100, Spinosad 30, Permethrin 10, Indoxacarb 50
[5] = insecticide + amine oxide 12, no buffer, 200:1, PPM: Chlorantranilopril 60, Acephate 70, Methoxyfenozide 100, Spinosad 30, Permethrin 10, Indoxacarb 50
[6] = insecticide + amine oxide 1218, no buffer, 200:1, PPM: Chlorantranilopril 60, Acephate 70, Methoxyfenozide 100, Spinosad 30, Permethrin 10, Indoxacarb 50
[7] = insecticide + buffered amine oxide system CO3, 12, 200:1, PPM: Chlorantranilopril 60, Acephate 70, Methoxyfenozide 100, Spinosad 30, Permethrin 10, Indoxacarb 50
[8] = insecticide + buffered amine oxide system CO3, 1218, 200:1, PPM: Chlorantranilopril 60, Acephate 70, Methoxyfenozide 100, Spinosad 30, Permethrin 10, Indoxacarb 50
[9] = insecticide + buffered amine oxide system PO4, 12, 200:1, PPM: Chlorantranilopril 60, Acephate 70, Methoxyfenozide 100, Spinosad 30, Permethrin 10, Indoxacarb 50
[10] = insecticide + buffered amine oxide system PO4, 1218, 200:1, PPM: Chlorantranilopril 60, Acephate 70, Methoxyfenozide 100, Spinosad 30, Permethrin 10, Indoxacarb 50
[11] = insecticide alone, highest, PPM: Chlorantranilopril 120, Acephate 140, Methoxyfenozide 200, Spinosad 60, Permethrin 20, Indoxacarb 100
[12] = insecticide alone, increased, PPM: Chlorantranilopril 90, Acephate 105, Methoxyfenozide 150, Spinosad 45, Permethrin 15, Indoxacarb 75
[13] = insecticide alone, PPM: Chlorantranilopril 60, Acephate 70, Methoxyfenozide 100, Spinosad 30, Permethrin 10, Indoxacarb 50

COP(=O)(NC(C)=O)SC (centres unmarked) [Acephate]
Percent Lepidopteran Damage to Romaine Lettuce 24 hr [1, 3]: 31.0%
Percent Lepidopteran Damage to Romaine Lettuce 24 hr [1, 4]: 20.0%
Percent Lepidopteran Damage to Romaine Lettuce 24 hr [1, 5]: 36.0%
Percent Lepidopteran Damage to Romaine Lettuce 24 hr [1, 6]: 28.0%
Percent Lepidopteran Damage to Romaine Lettuce 24 hr [1, 7]: 11.5%
Percent Lepidopteran Damage to Romaine Lettuce 24 hr [1, 8]: 4.5%
Percent Lepidopteran Damage to Romaine Lettuce 24 hr [1, 9]: 7.5%
Percent Lepidopteran Damage to Romaine Lettuce 24 hr [1, 10]: 1.0%
Percent Lepidopteran Damage to Romaine Lettuce 24 hr [1, 11]: 13.0%
Percent Lepidopteran Damage to Romaine Lettuce 24 hr [1, 12]: 16.5%
Percent Lepidopteran Damage to Romaine Lettuce 24 hr [1, 13]: 22.7%
Percent Lepidopteran Damage to Romaine Lettuce 24 hr [2, 3]: 50.0%
Percent Lepidopteran Damage to Romaine Lettuce 24 hr [2, 4]: 38.5%
Percent Lepidopteran Damage to Romaine Lettuce 24 hr [2, 5]: 27.0%
Percent Lepidopteran Damage to Romaine Lettuce 24 hr [2, 6]: 22.0%
Percent Lepidopteran Damage to Romaine Lettuce 24 hr [2, 7]: 34.0%
Percent Lepidopteran Damage to Romaine Lettuce 24 hr [2, 8]: 29.5%
Percent Lepidopteran Damage to Romaine Lettuce 24 hr [2, 9]: 43.5%
Percent Lepidopteran Damage to Romaine Lettuce 24 hr [2, 10]: 18.0%
Percent Lepidopteran Damage to Romaine Lettuce 24 hr [2, 11]: 29.0%
Percent Lepidopteran Damage to Romaine Lettuce 24 hr [2, 12]: 27.0%
Percent Lepidopteran Damage to Romaine Lettuce 24 hr [2, 13]: 27.5%
Percent Lepidopteran Damage to Romaine Lettuce 48 hr [2, 3]: 57.5%
Percent Lepidopteran Damage to Romaine Lettuce 48 hr [2, 4]: 53.0%
Percent Lepidopteran Damage to Romaine Lettuce 48 hr [2, 5]: 49.5%
Percent Lepidopteran Damage to Romaine Lettuce 48 hr [2, 6]: 52.5%
Percent Lepidopteran Damage to Romaine Lettuce 48 hr [2, 7]: 63.5%
Percent Lepidopteran Damage to Romaine Lettuce 48 hr [2, 8]: 50.5%
Percent Lepidopteran Damage to Romaine Lettuce 48 hr [2, 9]: 55.5%
Percent Lepidopteran Damage to Romaine Lettuce 48 hr [2, 10]: 32.5%
Percent Lepidopteran Damage to Romaine Lettuce 48 hr [2, 11]: 35.5%
Percent Lepidopteran Damage to Romaine Lettuce 48 hr [2, 12]: 44.5%
Percent Lepidopteran Damage to Romaine Lettuce 48 hr [2, 13]: 47.5%
Percent Lepidopteran Damage to Romaine Lettuce 72 hr [2, 3]: 61.0%
Percent Lepidopteran Damage to Romaine Lettuce 72 hr [2, 4]: 68.5%
Percent Lepidopteran Damage to Romaine Lettuce 72 hr [2, 5]: 59.5%
Percent Lepidopteran Damage to Romaine Lettuce 72 hr [2, 6]: 67.0%
Percent Lepidopteran Damage to Romaine Lettuce 72 hr [2, 7]: 66.0%
Percent Lepidopteran Damage to Romaine Lettuce 72 hr [2, 8]: 63.5%
Percent Lepidopteran Damage to Romaine Lettuce 72 hr [2, 9]: 72.0%
Percent Lepidopteran Damage to Romaine Lettuce 72 hr [2, 10]: 51.0%
Percent Lepidopteran Damage to Romaine Lettuce 72 hr [2, 11]: 42.0%
Percent Lepidopteran Damage to Romaine Lettuce 72 hr [2, 12]: 47.0%
Percent Lepidopteran Damage to Romaine Lettuce 72 hr [2, 13]: 79.5%
